Data from patent publication US20050282242A1, “Screening assays for antimicrobial agents” (priority 2004, published 2005).
Values after ≈ are worked out from the molar mass of the structure shown. Like-named read-outs stand apart in the source and are kept apart here.

Legend:
[1] = system: S. aureus RpoB mutant H481Y; assay: MIC, S. aureus RpoB H481Y mutant; format: cell-based; conditions: Staphylococcus aureus; RpoB mutation H481Y; strain backgrounds 1, 2, 3
Excerpt: (§1) S. aureus is one of the most frequently encountered Gram-positive pathogens. Drug resistance-conferring mutations typically occur within the β subunit of RNA polymerase (RpoB mutations), in the rifampin-binding site. Mutants of S. aureus were isolated by inoculating a culture of S. aureus ATCC strain 29213 (standard susceptibility testing strain) into medium containing rifampin or rifalazil; by inoculating S. aureus ATCC strain 29213 into medium containing chemical derivatives of rifamycin (NCEs); by inoculating S. aureus Smith, a variant optimally adapted to colonizing and causing disease in the mouse septicemia model, into medium containing rifampin; and by using the Ian Chopra collection, the parent strain of which is S. aureus 8325-4 and described previously by Oliva et al. (Antimicrob. Agents Chemother. 45:532-9, 2001). […]
(§2) Having identified these mutants, the minimum inhibitory concentrations (MIC) of a number of rifamycin derivatives were determined in microtiter trays by inoculating 1-8×10^4 microorganisms in 100 μl of Mueller-Hinton Broth (cation adjusted) containing the indicated compound (Table 3) (National Committee for Clinical Laboratory Standards, Methods for Dilution Antimicrobial Susceptibility Tests for Bacteria That Grow Aerobically-Fourth Edition: Approved Standard M7-A4. NCCLS, Villanova, Pa., 1997). […]

[2] = system: S. aureus RpoB mutant Q468K; assay: MIC, S. aureus RpoB Q468K mutant; format: cell-based; conditions: Staphylococcus aureus; RpoB mutation Q468K; strain background 1
Excerpt: as §1, §2

[3] = system: S. aureus RpoB mutant S464P; assay: MIC, S. aureus RpoB S464P mutant; format: cell-based; conditions: Staphylococcus aureus; RpoB mutation S464P; strain backgrounds 1, 2, 4
Excerpt: as §1, §2

[4] = system: S. aureus RpoB mutant A477D; assay: MIC, S. aureus RpoB A477D mutant; format: cell-based; conditions: Staphylococcus aureus; RpoB mutation A477D; strain backgrounds 1, 4
Excerpt: as §1, §2

[5] = system: S. aureus RpoB mutant Q468R; assay: MIC, S. aureus RpoB Q468R mutant; format: cell-based; conditions: Staphylococcus aureus; RpoB mutation Q468R; strain background 1
Excerpt: as §1, §2

[6] = system: S. aureus RpoB mutant H481D; assay: MIC, S. aureus RpoB H481D mutant; format: cell-based; conditions: Staphylococcus aureus; RpoB mutation H481D; strain backgrounds 1, 4
Excerpt: as §1, §2

[7] = system: S. aureus RpoB mutant S486L; assay: MIC, S. aureus RpoB S486L mutant; format: cell-based; conditions: Staphylococcus aureus; RpoB mutation S486L; strain backgrounds 1, 2, 4
Excerpt: as §1, §2

[8] = system: S. aureus RpoB mutant I527P; assay: MIC, S. aureus RpoB I527P mutant; format: cell-based; conditions: Staphylococcus aureus; RpoB mutation I527P; strain background 1
Excerpt: as §1, §2

[9] = system: S. aureus RpoB mutant R484H; assay: MIC, S. aureus RpoB R484H mutant; format: cell-based; conditions: Staphylococcus aureus; RpoB mutation R484H; strain backgrounds 1, 3
Excerpt: as §1, §2

[10] = system: S. aureus RpoB mutant R484S; assay: MIC, S. aureus RpoB R484S mutant; format: cell-based; conditions: Staphylococcus aureus; RpoB mutation R484S; strain background 1
Excerpt: as §1, §2

[11] = system: S. aureus RpoB mutant R484C; assay: MIC, S. aureus RpoB R484C mutant; format: cell-based; conditions: Staphylococcus aureus; RpoB mutation R484C; strain background 3
Excerpt: as §1, §2

[12] = system: S. aureus RpoB mutant H481N; assay: MIC, S. aureus RpoB H481N mutant; format: cell-based; conditions: Staphylococcus aureus; RpoB mutation H481N; strain backgrounds 1, 4
Excerpt: as §1, §2

[13] = system: S. aureus RpoB mutant I527M; assay: MIC, S. aureus RpoB I527M mutant; format: cell-based; conditions: Staphylococcus aureus; RpoB mutation I527M; strain background 1
Excerpt: as §1, §2

[14] = system: S. aureus RpoB mutant A477V; assay: MIC, S. aureus RpoB A477V mutant; format: cell-based; conditions: Staphylococcus aureus; RpoB mutation A477V; strain backgrounds 1, 2
Excerpt: as §1, §2

[15] = system: S. aureus RpoB mutant Q137L; assay: MIC, S. aureus RpoB Q137L mutant; format: cell-based; conditions: Staphylococcus aureus; RpoB mutation Q137L; strain backgrounds 1, 4
Excerpt: as §1, §2

[16] = system: S. aureus RpoB mutant D471V; assay: MIC, S. aureus RpoB D471V mutant; format: cell-based; conditions: Staphylococcus aureus; RpoB mutation D471V; strain background 3
Excerpt: as §1, §2

[17] = system: S. aureus RpoB mutant D471Y; assay: MIC, S. aureus RpoB D471Y mutant; format: cell-based; conditions: Staphylococcus aureus; RpoB mutation D471Y; strain backgrounds 1, 2, 4
Excerpt: as §1, §2

[18] = system: S. aureus RpoB mutant D471G; assay: MIC, S. aureus RpoB D471G mutant; format: cell-based; conditions: Staphylococcus aureus; RpoB mutation D471G; strain backgrounds 1, 2
Excerpt: as §1, §2

[19] = system: S. aureus RpoB mutant H481R; assay: MIC, S. aureus RpoB H481R mutant; format: cell-based; conditions: Staphylococcus aureus; RpoB mutation H481R; strain background 3
Excerpt: as §1, §2

[20] = system: S. aureus RpoB mutant L466S; assay: MIC, S. aureus RpoB L466S mutant; format: cell-based; conditions: Staphylococcus aureus; RpoB mutation L466S; strain backgrounds 1, 2, 4
Excerpt: as §1, §2

[21] = system: S. aureus RpoB mutant D471E; assay: MIC, S. aureus RpoB D471E mutant; format: cell-based; conditions: Staphylococcus aureus; RpoB mutation D471E; strain background 4
Excerpt: as §1, §2

[22] = system: Wild-type parent strains (S. aureus 29213, Smith, W59536, 8325-4); assay: MIC, wild-type parent S. aureus strains; format: cell-based
Excerpt: S. aureus is one of the most frequently encountered Gram-positive pathogens. Drug resistance-conferring mutations typically occur within the β subunit of RNA polymerase (RpoB mutations), in the rifampin-binding site. Mutants of S. aureus were isolated by inoculating a culture of S. aureus ATCC strain 29213 (standard susceptibility testing strain) into medium containing rifampin or rifalazil; by inoculating S. aureus ATCC strain 29213 into medium containing chemical derivatives of rifamycin (NCEs); by inoculating S. aureus Smith, a variant optimally adapted to colonizing and causing disease in the mouse septicemia model, into medium containing rifampin; and by using the Ian Chopra collection, the parent strain of which is S. aureus 8325-4 and described previously by Oliva et al. (Antimicrob. Agents Chemother. 45:532-9, 2001). Mutants resistant to rifampin, rifalazil, or NCEs were selected either on drug-containing plates or in liquid culture.
Having identified these mutants, the minimum inhibitory concentrations (MIC) of a number of rifamycin derivatives were determined in microtiter trays by inoculating 1-8×10^4 microorganisms in 100 μl of Mueller-Hinton Broth (cation adjusted) containing the indicated compound (Table 3) (National Committee for Clinical Laboratory Standards, Methods for Dilution Antimicrobial Susceptibility Tests for Bacteria That Grow Aerobically-Fourth Edition: Approved Standard M7-A4. NCCLS, Villanova, Pa., 1997). These cultures were incubated for 16-20 hours at 35° C. Based on our results, the most important mutants (conferring the strongest resistance) were identified for more extensive testing of NCEs. These mutants were H481Y, Q468K, S486L, D471Y, S464P, A477D, and H481D. […] An exception to the uniformity of the measure of resistance is provided by the mutants D471Y and S464P, which together have lower MICs for some of the compounds compared to the rest. […]

S. aureus 29213 = assay: Mutant score test (resistance development on agar); format: cell-based; conditions: 10^9 cells of S. aureus 29213 on agar plate with 1 μg/ml compound
Method: A further confirmation of the validity of MIC testing of the mutant panel was provided by our mutant score test. Using this strategy, compounds were individually tested for resistance development by inoculating 10^9 cells of S. aureus 29213, a standard susceptibility strain, onto a large agar plate (150 mm) containing Mueller Hinton Agar as well as 1 μg/ml of the test compound. The presence of rifalazil or rifampin in these plates generally allowed for the growth of ˜50 colonies, all colonies representing a mutant sub-population or populations in the culture. […] The MICs of NCEs on agar plates were lower than MICs determined by growth in liquid broth. […] This correlation provided additional confidence in the value and ranking of compounds by MIC testing of the mutant panel, as compounds having a score of 2 have tracked with strong activity in MIC testing against resistant strains, as indicated in Table 3.

[23] = system: S. aureus Smith containing the RpoB H481Y alteration; assay: Mouse septicemia model, S. aureus Smith RpoB H481Y; format: in vivo; conditions: for Survival (n = 5): mouse, 1.1 × 10^7 CFU/mouse, three days
Method: (§3) Antimicrobial compounds may also be screened in vivo using a mouse septicemia model. In one particular example, mice were inoculated with an S. aureus Smith strain (Weiss) encoding a mutated microbial polypeptide (e.g., a mutated RpoB). Compounds were administered either IV or orally 30 minutes following inoculation, and observations was continued for three days. Compounds that promoted the survival of inoculated mice were identified as being compounds that are effective against antibiotic-resistant forms of S. aureus.
(§4) This was accounted for by the increased MIC against these mutant strains compared with the wild-type strain (MICs of 2 μg/ml and 0.004-0.008 μg/ml, respectively).

[24] = system: S. aureus Smith mutant containing the S486L mutation in RpoB; assay: Mouse septicemia model, S. aureus Smith RpoB S486L; format: in vivo; conditions: 1.4 × 10^7 CFU/mouse, three days
Method: as §3, §4

[25] = system: S. aureus Smith mutant containing the L466S mutation in RpoB; assay: Mouse septicemia model, S. aureus Smith RpoB L466S; format: in vivo; conditions: 1.1 × 10^7 CFU/mouse, three days
Method: as §3, §4

Row | SMILES | MIC [1] [µg/mL] | MIC [2] [µg/mL] | MIC [3] [µg/mL] | MIC [4] [µg/mL] | MIC [5] [µg/mL] | MIC [6] [µg/mL] | MIC [7] [µg/mL] | MIC [8] [µg/mL] | MIC [9] [µg/mL] | MIC [10] [µg/mL] | MIC [11] [µg/mL] | MIC [12] [µg/mL] | MIC [13] [µg/mL] | MIC [14] [µg/mL] | MIC [15] [µg/mL] | MIC [16] [µg/mL] | MIC [17] [µg/mL] | MIC [18] [µg/mL] | MIC [19] [µg/mL] | MIC [20] [µg/mL] | other results
1 | CO[C@H]1/C=C/O[C@@]2(C)Oc3c(C)c(O)c4c(O)c(c(/C=N/N5CCN(C)CC5)c(O)c4c3C2=O)NC(=O)/C(C)=C\C=C\[C@H](C)[C@H](O)[C@@H](C)[C@@H](O)[C@@H](C)[C@H](OC(C)=O)[C@@H]1C [Rifampicin, rifampin] | > 8 | > 8 | > 8 | > 8 | > 8 | > 8 | > 8 | 4 (≈ 4.86 µM) | > 8 | 8 (≈ 9.72 µM) | 2 (≈ 2.43 µM) | 2 (≈ 2.43 µM) | 0.25 (≈ 0.304 µM) | 1 (≈ 1.22 µM) | 0.25 (≈ 0.304 µM) | > 8 | 1 (≈ 1.22 µM) | > 8 | > 8 | 0.25 (≈ 0.304 µM) | MIC [21]: 0.25 µg/mL (≈ 0.304 µM); MIC ([22]; Staphylococcus aureus, Mutation None: wild-type parent strains, read-out: MIC): 0.015 µg/mL (≈ 0.0182 µM); growth of mutant colonies on plate (S. aureus 29213): ~50 colonies; efficacy against mutant strains in vivo ([23]; mouse septicemia model, mutant strains in general): failed to be effective; Survival (n = 5) ([23]; IV 6.0 mg/kg): 0; Survival (n = 5) ([23]; IV 20.0 mg/kg): 0; Survival (n = 5) ([23]; oral 200.0 mg/kg): 0; Survival (n = 5) ([24]; IV 6.0 mg/kg): 0; Survival (n = 5) ([24]; IV 20.0 mg/kg): 1; Survival (n = 5) ([25]; IV 6.0 mg/kg): 0; Survival (n = 5) ([25]; IV 20.0 mg/kg): 0
2 | O=C(O)c1cn(C2CC2)c2cc(N3CCNCC3)c(F)cc2c1=O [Ciprofloxacin] |  |  |  |  |  |  |  |  |  |  |  |  |  |  |  |  |  |  |  |  | Survival (n = 5) ([23]; IV 0.6 mg/kg): 2; Survival (n = 5) ([23]; IV 2.0 mg/kg): 5; Survival (n = 5) ([23]; IV 6.0 mg/kg): 4; Survival (n = 5) ([24]; IV 0.6 mg/kg): 1; Survival (n = 5) ([24]; IV 2.0 mg/kg): 3; Survival (n = 5) ([24]; IV 6.0 mg/kg): 5; Survival (n = 5) ([25]; IV 0.6 mg/kg): 1; Survival (n = 5) ([25]; IV 2.0 mg/kg): 4; Survival (n = 5) ([25]; IV 6.0 mg/kg): 5
3 | CO[C@H]1/C=C/O[C@@]2(C)Oc3c(C)c(O)c4c(=O)c(c5oc6cc(N7CCN(CC(C)C)CC7)cc(O)c6nc-5c4c3C2=O)NC(=O)/C(C)=C\C=C\[C@H](C)[C@H](O)[C@@H](C)[C@@H](O)[C@@H](C)[C@H](OC(C)=O)[C@@H]1C [Rfz, rifalazil] | > 8 | > 8 | 1 (≈ 1.06 µM) | 2 to 4 (≈ 2.13 to 4.25 µM) | > 8 | > 8 | > 8 | 1 (≈ 1.06 µM) | 8 (≈ 8.5 µM) | 0.5 (≈ 0.531 µM) | 0.5 (≈ 0.531 µM) | 0.125 (≈ 0.133 µM) | 0.063 (≈ 0.0669 µM) | 0.063 (≈ 0.0669 µM) | < 0.031 | 2 (≈ 2.13 µM) | 0.25 (≈ 0.266 µM) | > 8 | > 8 | 0.016 (≈ 0.017 µM) | MIC [21]: < 0.031 µg/mL; MIC ([22]; Mutation None: wild-type parent strains): 0.015 µg/mL (≈ 0.0159 µM); MIC ([22]; Staphylococcus aureus, strain not stated, matches wild-type value of Table 2, read-out: MIC): 0.015 µg/mL (≈ 0.0159 µM); growth of mutant colonies on plate (S. aureus 29213): ~50 colonies
